The experiment has as its target SMYD2 (Homo sapiens (Human), UniProt Q9NRG4). Nature of the experiment: SMYD2 biochemical assay (SMYD2 enzyme assay on peptide substrate, 3H-SAM Flashplate). The conditions noted are these: read-out: SMYD2 Biochem IC50; IC50 values are an average of n = 1 to n = 50.

This passage reports IC50 results from US10266526B2, “Substituted 1,2,3-triazoles as SMYD inhibitors for treating cancer” (EPIZYME, INC., priority 2014, dated 2019).

SMYD2, sequence (Q9NRG4 whole entry): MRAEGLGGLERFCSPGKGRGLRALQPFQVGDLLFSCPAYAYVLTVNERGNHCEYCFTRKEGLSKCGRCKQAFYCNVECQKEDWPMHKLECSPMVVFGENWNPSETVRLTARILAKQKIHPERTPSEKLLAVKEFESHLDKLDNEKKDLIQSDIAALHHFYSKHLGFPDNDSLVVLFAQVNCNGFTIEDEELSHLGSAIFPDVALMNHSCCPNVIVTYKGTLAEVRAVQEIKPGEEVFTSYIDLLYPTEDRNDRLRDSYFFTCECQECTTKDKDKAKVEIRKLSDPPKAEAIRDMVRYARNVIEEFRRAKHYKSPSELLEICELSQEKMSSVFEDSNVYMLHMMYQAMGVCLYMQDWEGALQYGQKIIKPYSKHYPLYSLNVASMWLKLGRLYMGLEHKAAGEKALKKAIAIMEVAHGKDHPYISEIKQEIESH

With `O=C(NC1CN(Cc2cnn(CCc3ccccc3)c2)C1)c1cc(C2CC2)cnn1` [compound 807, 5-cyclopropyl-N-(1-{[1-(2-phenylethyl)-1H-pyrazol-4-yl]methyl}azetidin-3-yl)pyridazine-3-carboxamide], the half-maximal inhibitory concentration (IC50) came out at 0.528 µM.
As for `CC(C)N1CCCC(NC(=O)c2cn(C3CC3)nn2)C1` (stereo not shown) [compound 808, 1-cyclopropyl-N-[1-(propan-2-yl)piperidin-3-yl]-1H-1,2,3-triazole-4-carboxamide], the figure is 19.8 µM.
In the case of `O=C(NC1CN(Cc2cncn2Cc2ccccc2)C1)c1cn(C2CC2)nn1` [compound 809, N-{1-[(1-benzyl-1H-imidazol-5-yl)methyl]azetidin-3-yl}-1-cyclopropyl-1H-1,2,3-triazole-4-carboxamide], the half-inhibitory concentration (IC50) was above 50 µM.
With `Cn1cc(CN2CC(NC(=O)c3cn(C4CC4)nn3)C2)c(Cl)n1` [compound 811, N-{1-[(3-chloro-1-methyl-1H-pyrazol-4-yl)methyl]azetidin-3-yl}-1-cyclopropyl-1H-1,2,3-triazole-4-carboxamide] the figure was 1.22 µM; with `O=C(NC1CN(C(CO)c2ccc(F)cc2)C1)c1cn(C2CC2)nn1` (stereo not shown) [compound 813, 1-cyclopropyl-N-{1-[1-(4-fluorophenyl)-2-hydroxyethyl]azetidin-3-yl}-1H-1,2,3-triazole-4-carboxamide], 15.2 µM; with `CCN1CC(NC(=O)c2cc(C3CC3)cnn2)C1` [compound 814, 5-cyclopropyl-N-(1-ethylazetidin-3-yl)pyridazine-3-carboxamide], 0.598 µM.
As to `CC(C)N1CCCC(NC(=O)c2cc(C3CC3)cnn2)C1` (stereo not shown) [compound 815, 5-cyclopropyl-N-[1-(propan-2-yl)piperidin-3-yl]pyridazine-3-carboxamide], the 50% inhibitory concentration (IC50) came out at 18.7 µM.
As for `O=C(NC1CN(C(c2ccc(OCc3ccccc3)cc2)C(F)(F)F)C1)c1cn(C2CC2)nn1` (stereo not shown) [compound 816, N-(1-{1-[4-(benzyloxy)phenyl]-2,2,2-trifluoroethyl}azetidin-3-yl)-1-cyclopropyl-1H-1,2,3-triazole-4-carboxamide], the figure is above 50 µM; as for `CC(c1ccc(OCc2ccccc2)cc1Cl)N1CC(NC(=O)c2cn(C3CC3)nn2)C1` (stereo not shown) [compound 817, N-(1-{1-[4-(benzyloxy)-2-chlorophenyl]ethyl}azetidin-3-yl)-1-cyclopropyl-1H-1,2,3-triazole-4-carboxamide], 0.102 µM; as for `COCCCOc1ccc(CN2CC(NC(=O)c3cn(C4CC4)nn3)C2)cc1` [compound 818, 1-cyclopropyl-N-(1-{[4-(3-methoxypropoxy)phenyl]methyl}azetidin-3-yl)-1H-1,2,3-triazole-4-carboxamide], 3 µM.
With `CNC1CCCC(C(=O)Nc2cc(O)c3c(c2)OCC(=O)N3)C1` (stereo not shown) [compound 820, N-(5-hydroxy-3-oxo-3,4-dihydro-2H-1,4-benzoxazin-7-yl)-3-(methylamino)cyclohexane-1-carboxamide] the figure was above 50 µM.
For `COc1ccc(C(C)N2CC(NC(=O)c3cn(C4CC4)nn3)C2)cc1` (stereo not shown) [compound 821, 1-cyclopropyl-N-{1-[1-(4-methoxyphenyl)ethyl]azetidin-3-yl}-1H-1,2,3-triazole-4-carboxamide], the half-maximal inhibitory concentration (IC50) worked out at 0.785 µM.
With `CC(O)COc1ccc(CN2CC(NC(=O)c3cn(C4CC4)nn3)C2)cc1` (stereo not shown) [compound 822, 1-cyclopropyl-N-(1-{[4-(2-hydroxypropoxy)phenyl]methyl}azetidin-3-yl)-1H-1,2,3-triazole-4-carboxamide] the figure was 1.97 µM; with `O=C(NC1CN(Cc2ccc(OCCCO)cc2)C1)c1cn(C2CC2)nn1` [compound 823, 1-cyclopropyl-N-(1-{[4-(3-hydroxypropoxy)phenyl]methyl}azetidin-3-yl)-1H-1,2,3-triazole-4-carboxamide], 3.22 µM.
As for `O=C(NC1CN(Cc2ccc(O)cc2)C1)c1cn(C2CC2)nn1` [compound 824, 1-cyclopropyl-N-{1-[(4-hydroxyphenyl)methyl]azetidin-3-yl}-1H-1,2,3-triazole-4-carboxamide], the 50% inhibitory concentration (IC50) turned out to be 0.882 µM.
With `CN1CC(NC(=O)c2cc(C3CC3)cnn2)C1` [compound 825, 5-cyclopropyl-N-(1-methylazetidin-3-yl)pyridazine-3-carboxamide] the figure was 0.391 µM; with `COc1ccc(CN2CC(NC(=O)c3cn(C4CC4)nn3)C2)cc1` [compound 826, 1-cyclopropyl-N-{1-[(4-methoxyphenyl)methyl]azetidin-3-yl}-1H-1,2,3-triazole-4-carboxamide], 1.84 µM.
As for `O=C(NC1CN(Cc2ccc(OCCO)cc2)C1)c1cn(C2CC2)nn1` [compound 827, 1-cyclopropyl-N-(1-{[4-(2-hydroxyethoxy)phenyl]methyl}azetidin-3-yl)-1H-1,2,3-triazole-4-carboxamide], the figure is 1.38 µM; as for `O=C(NC1CN(Cc2ccc(OCc3ccncc3)cc2)C1)c1cn(C2CC2)nn1` [compound 828, 1-cyclopropyl-N-(1-{[4-(pyridin-4-ylmethoxy)phenyl]methyl}azetidin-3-yl)-1H-1,2,3-triazole-4-carboxamide], 1.03 µM; as for `CC(c1ccc(OCC(=O)N2CCOCC2)cc1)N1CC(NC(=O)c2cn(C3CC3)nn2)C1` (stereo not shown) [compound 829, 1-cyclopropyl-N-[1-(1-(4-[2-(morpholin-4-yl)-2-oxoethoxy]phenyl}ethyl)azetidin-3-yl]-1H-1,2,3-triazole-4-carboxamide], 0.713 µM.
As for `COCCOc1ccc(CN2CC(NC(=O)c3cn(C4CC4)nn3)C2)cc1` [compound 830, 1-cyclopropyl-N-(1-{[4-(2-methoxyethoxy)phenyl]methyl}azetidin-3-yl)-1H-1,2,3-triazole-4-carboxamide], the figure is 2.07 µM.
As to `Cn1cc(CN2CC(NC(=O)c3cc(C4CC4)cnn3)C2)c(Cl)n1` [compound 833, N-{1-[(3-chloro-1-methyl-1H-pyrazol-4-yl)methyl]azetidin-3-yl}-5-cyclopropylpyridazine-3-carboxamide], the IC50 was 0.94 µM.
With `CN(C)CCNC(=O)c1cn(C2CC2)nn1` [compound 834, 1-cyclopropyl-N-[2-(dimethylamino)ethyl]-1H-1,2,3-triazole-4-carboxamide] the figure was above 50 µM; with `CNCc1cccc(C(C)N2CC(NC(=O)c3cn(C4CC4)nn3)C2)c1OC` (stereo not shown) [compound 835, 1-cyclopropyl-N-[1-(1-(2-methoxy-3-[(methylamino)methyl]phenyl}ethyl)azetidin-3-yl]-1H-1,2,3-triazole-4-carboxamide], 0.78 µM.
As to `CC(c1ccc(OCc2ccccc2)cc1)N1CC(NC(=O)c2cc(C3CC3)cnn2)C1` (stereo not shown) [compound 836, N-(1-{1-[4-(benzyloxy)phenyl]ethyl}azetidin-3-yl)-5-cyclopropylpyridazine-3-carboxamide], the 50% inhibitory concentration (IC50) worked out at 0.0265 µM.
With `CC[C@@H](c1cccc(Cl)c1)N1CC(NC(=O)c2cn(C3CC3)nn2)C1` [compound 837, N-{1-[(1S)-1-(3-chlorophenyl)propyl]azetidin-3-yl}-1-cyclopropyl-1H-1,2,3-triazole-4-carboxamide], the IC50 is 0.34 µM.
As for `O=C(NC1CN(Cc2cn(CCc3ccccc3)cn2)C1)c1cc(C2CC2)cnn1` [compound 838, 5-cyclopropyl-N-(1-{[1-(2-phenylethyl)-1H-imidazol-4-yl]methyl}azetidin-3-yl)pyridazine-3-carboxamide], the figure is 0.496 µM; as for `CC(NC(=O)c1cc(C2CC2)cnn1)C1CNC1` (stereo not shown) [compound 839, N-[1-(azetidin-3-yl)ethyl]-5-cyclopropylpyridazine-3-carboxamide], 18.2 µM; as for `CC(NC(=O)c1cc(C2CC2)cnn1)C1CN(C(C)C)C1` (stereo not shown) [compound 840, 5-cyclopropyl-N-{1-[1-(propan-2-yl)azetidin-3-yl]ethyl}pyridazine-3-carboxamide], 36.8 µM.
Regarding `COc1ccccc1[C@H](C)N1CC(NC(=O)c2cc(C3CC3)cnn2)C1` [compound 841, 5-cyclopropyl-N-{1-[(1S)-1-(2-methoxyphenyl)ethyl]azetidin-3-yl}pyridazine-3-carboxamide], the concentration for half-maximal inhibition (IC50) was 5.01 µM.
With `COc1ccccc1[C@@H](C)N1CC(NC(=O)c2cc(C3CC3)cnn2)C1` [compound 842, 5-cyclopropyl-N-{1-[(1R)-1-(2-methoxyphenyl)ethyl]azetidin-3-yl}pyridazine-3-carboxamide] the figure was 0.189 µM; with `COc1ccc(C(C)N2CC(NC(=O)c3cn(C4CC4)nn3)C2)c(Cl)c1` (stereo not shown) [compound 845, N-{1-[1-(2-chloro-4-methoxyphenyl)ethyl]azetidin-3-yl}-1-cyclopropyl-1H-1,2,3-triazole-4-carboxamide], 0.088 µM.
As for `O=C(NC1CN(Cc2ccc(OCc3cscn3)cc2)C1)c1cn(C2CC2)nn1` [compound 846, 1-cyclopropyl-N-(1-{[4-(1,3-thiazol-4-ylmethoxy)phenyl]methyl}azetidin-3-yl)-1H-1,2,3-triazole-4-carboxamide], the figure is 1.09 µM.
With `O=C(NC1CN(Cc2ccc(OCc3ccccn3)cc2)C1)c1cn(C2CC2)nn1` [compound 849, 1-cyclopropyl-N-(1-{[4-(pyridin-2-ylmethoxy)phenyl]methyl}azetidin-3-yl)-1H-1,2,3-triazole-4-carboxamide] the figure was 2.66 µM; with `COc1cccc(C(C)N2CC(NC(=O)c3cc(C4CC4)cnn3)C2)c1Cl` (stereo not shown) [compound 851, N-{1-[1-(2-chloro-3-methoxyphenyl)ethyl]azetidin-3-yl}-5-cyclopropylpyridazine-3-carboxamide], 0.0721 µM.
For `CC(c1ccc(OCCc2ccccc2)cc1)N1CC(NC(=O)c2cn(C3CC3)nn2)C1` (stereo not shown) [compound 853, 1-cyclopropyl-N-(1-{1-[4-(2-phenylethoxy)phenyl]ethyl}azetidin-3-yl)-1H-1,2,3-triazole-4-carboxamide], the IC50 stood at 0.776 µM.
`CNC(=O)c1ccc(COc2ccc(C(C)N3CC(NC(=O)c4cn(C5CC5)nn4)C3)cc2)cc1` (stereo not shown) [compound 854, 1-cyclopropyl-N-{1-[1-(4-{[4-(methylcarbamoyl)phenyl]methoxy}phenyl)ethyl]azetidin-3-yl}-1H-1,2,3-triazole-4-carboxamide]: the IC50 stood at 0.965 µM.
